From ChEMBL document CHEMBL3132833, “3,4,2-Trimethoxy-trans-stilbene a potent CYP1B1 inhibitor” (Medchemcomm, 2014)
In brackets after ≈: the same amount, converted by molar mass.

What was measured:
Cytochrome P450 1B1 = target: T1, Cytochrome P450 1B1 (Homo sapiens, UniProt Q16678); test: Inhibition of human recombinant CYP1B1 after 15 mins by 7-ethoxyresorufin-O-deethylation-based spectrofluorimetry
T1 sequence (Q16678 whole entry): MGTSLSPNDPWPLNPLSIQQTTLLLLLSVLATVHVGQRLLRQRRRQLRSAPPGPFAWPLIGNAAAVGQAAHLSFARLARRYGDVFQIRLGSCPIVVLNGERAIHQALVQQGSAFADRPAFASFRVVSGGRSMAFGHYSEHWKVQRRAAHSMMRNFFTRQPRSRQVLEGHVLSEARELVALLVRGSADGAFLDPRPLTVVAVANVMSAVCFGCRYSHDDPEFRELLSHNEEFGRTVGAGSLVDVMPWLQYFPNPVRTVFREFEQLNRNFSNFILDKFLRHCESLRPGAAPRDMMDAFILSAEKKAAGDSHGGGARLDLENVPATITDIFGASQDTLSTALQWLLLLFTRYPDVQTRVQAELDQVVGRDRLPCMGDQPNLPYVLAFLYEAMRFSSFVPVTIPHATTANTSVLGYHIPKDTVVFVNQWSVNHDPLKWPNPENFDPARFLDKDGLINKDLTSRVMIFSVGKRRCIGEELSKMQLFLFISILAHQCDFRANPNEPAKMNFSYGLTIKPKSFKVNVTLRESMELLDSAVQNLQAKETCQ

Homo sapiens [1] = species on record: Homo sapiens; test: Selectivity ratio of IC50 for human recombinant CYP1A1 to IC50 for human recombinant CYP1B1
Homo sapiens [2] = species on record: Homo sapiens; test: Selectivity ratio of IC50 for human recombinant CYP1A2 to IC50 for human recombinant CYP1B1
Cytochrome P450 1A2 = target: T2, Cytochrome P450 1A2 (Homo sapiens, UniProt P05177); test: Inhibition of human recombinant CYP1A2 after 15 mins by 7-ethoxyresorufin-O-deethylation-based spectrofluorimetry
T2 sequence (P05177 whole entry): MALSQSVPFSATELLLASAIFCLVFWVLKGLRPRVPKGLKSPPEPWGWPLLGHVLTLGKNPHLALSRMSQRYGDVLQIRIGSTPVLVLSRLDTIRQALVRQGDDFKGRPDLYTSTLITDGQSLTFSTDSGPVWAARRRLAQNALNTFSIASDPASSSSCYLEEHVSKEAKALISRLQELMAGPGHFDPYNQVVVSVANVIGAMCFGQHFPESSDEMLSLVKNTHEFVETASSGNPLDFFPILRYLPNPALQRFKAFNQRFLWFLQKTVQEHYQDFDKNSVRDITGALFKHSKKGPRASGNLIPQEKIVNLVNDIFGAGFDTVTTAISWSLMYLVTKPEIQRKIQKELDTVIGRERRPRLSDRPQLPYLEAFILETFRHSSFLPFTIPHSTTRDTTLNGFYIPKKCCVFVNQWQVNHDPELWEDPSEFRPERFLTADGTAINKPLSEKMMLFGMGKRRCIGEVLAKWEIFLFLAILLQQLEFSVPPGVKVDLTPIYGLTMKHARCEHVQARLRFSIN

Cytochrome P450 1A1 = target: T3, Cytochrome P450 1A1 (Homo sapiens, UniProt P04798); test: Inhibition of human recombinant CYP1A1 after 15 mins by 7-ethoxyresorufin-O-deethylation-based spectrofluorimetry
T3 sequence (P04798 whole entry): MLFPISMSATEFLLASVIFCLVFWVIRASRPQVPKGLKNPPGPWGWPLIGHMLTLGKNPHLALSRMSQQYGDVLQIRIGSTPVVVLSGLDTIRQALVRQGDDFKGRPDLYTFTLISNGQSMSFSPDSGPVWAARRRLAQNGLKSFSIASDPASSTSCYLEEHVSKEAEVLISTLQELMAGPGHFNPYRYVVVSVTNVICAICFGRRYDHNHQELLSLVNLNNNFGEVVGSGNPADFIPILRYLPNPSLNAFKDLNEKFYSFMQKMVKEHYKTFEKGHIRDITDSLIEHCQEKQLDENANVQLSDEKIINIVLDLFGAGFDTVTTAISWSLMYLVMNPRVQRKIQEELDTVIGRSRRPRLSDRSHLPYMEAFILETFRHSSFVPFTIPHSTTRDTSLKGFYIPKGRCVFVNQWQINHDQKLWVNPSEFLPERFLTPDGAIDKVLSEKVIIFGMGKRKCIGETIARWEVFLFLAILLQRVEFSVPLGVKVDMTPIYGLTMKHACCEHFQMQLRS

Col2 = test: Cytotoxicity against human Col2 cells; assay type: functional, cell-based

| Structure (SMILES) | IC50 (Cytochrome P450 1B1) | Ratio IC50 (Homo sapiens [1]) | Ratio IC50 (Homo sapiens [2]) | IC50 (Cytochrome P450 1A2) | IC50 (Cytochrome P450 1A1) | IC50 (Col2) |
| --- | --- | --- | --- | --- | --- | --- |
| COc1ccc(/C=C/c2cc(O)cc(O)c2)cc1 [RESVERATROL 4'-METHYL ETHER] | 0.8 µM | – | – | – | – | – |
| COc1ccc(/C=C/c2ccc(OC)c(OC)c2OC)cc1OC | 4.17 µM | 1.2 | > 24 | > 100 µM | 5.18 µM | – |
| COc1cc(/C=C/c2ccc(OC)cc2OC)cc(OC)c1 | – | – | – | – | – | 0.8 mg/L (≈ 2.66 µM) |
| COc1cc(OC)c(OC)cc1/C=C/c1ccc(OC)c(OC)c1 | 4.44 µM | 0.4 | > 22.5 | > 100 µM | 1.78 µM | – |
| COc1ccc(OC)c(/C=C/c2ccc(OC)c(OC)c2)c1 | 0.62 µM | 0.8 | > 160 | > 100 µM | 0.5 µM | – |
| COc1cc(O)cc(/C=C/c2ccc(O)cc2)c1 | 2.1 µM | – | – | – | – | – |
| COc1cc(/C=C/c2ccc(O)cc2)cc(OC)c1 [PTEROSTILBENE] | 1.4 µM | – | – | – | – | – |

Now from value to compound, other results behind:

| IC50 (Cytochrome P450 1B1) | Ratio IC50 (Homo sapiens [1]) | Ratio IC50 (Homo sapiens [2]) | IC50 (Cytochrome P450 1A2) | IC50 (Cytochrome P450 1A1) | Structure (SMILES) | IC50 (Col2) |
| --- | --- | --- | --- | --- | --- | --- |
| 0.37 µM | 1.2 | 43.3 | 16 µM | 0.45 µM | COc1ccc(/C=C/c2cccc(OC)c2OC)cc1OC | – |
| 0.3 µM | 1.5 | 20.1 | 6.04 µM | 0.44 µM | COc1ccc(/C=C/c2ccccc2)cc1OC | – |
| 0.3 µM | 0.9 | > 333 | > 100 µM | 0.27 µM | COc1cc(OC)c(/C=C/c2ccc(OC)c(OC)c2)c(OC)c1 | – |
| 0.31 µM | 0.74 | 7.5 | 2.31 µM | 0.23 µM | COc1ccc(/C=C/c2c(OC)cccc2OC)cc1OC | – |
| 0.21 µM | 2.4 | > 480 | > 100 µM | 0.51 µM | COc1ccc(/C=C/c2ccc(OC)c(OC)c2)c(OC)c1 | – |
| 0.004 µM | 90 | 830 | 3.32 µM | 0.36 µM | COc1ccccc1/C=C/c1ccc(OC)c(OC)c1 | – |
